# Where two headings read alike, the source gives them in different places.
# Experiments:
# Format in all cases: in vivo, Lepeophtheirus salmonis
# [1] = tested on: LsHybridG (LsGulen as its maternal strain)
# Experimental: (§1) In order to hybridise the lice strains for the inheritance experiment, the parental strains were first synchronised and multiplied up in numbers by simultaneously infecting 20 Atlantic salmon with copepods. In total, 1000 copepods per strain were added. At 32 days post infection (dpi), all salmon were anaesthetised and approximately half of the lice were carefully removed using tweezers. At this stage, lice were predominantly preadult 2 females and adult males, with a few percent adult females and preadult 2 males. The lice removed from the salmon were sexed, and then used to create the reciprocal hybrid strains. This was achieved by combining 4-5 females from the resistant strain and 4-5 males from the sensitive strain (LsHybridV), and 4-5 females from the sensitive strain and 4-5 males from the resistant strain (LsHybridG). Only preadult 2 females were used. These combinations were each placed into 2 replicate tanks in order to make two hybrid strains (4 groups and 8 tanks at this stage). At 67-68 dpi, all lice were removed from the four strains. Egg strings were removed from adult females and incubated in containers containing a single strain each. The number of adult lice, and harvested egg strings varied, but all were incubated (Table 2). Table 2. Number of egg strings collected from each strain. Egg strings from replicate tanks were pooled. Most egg strings were part of a pair.
# (§2) The subsequent generation (F2, Fig. 2) were both produced using the general procedure described above, although the hybrid strains were only crossed back to themselves to create multiple generation-hybrids. Collection of egg strings, which marked the establishment of a new generation, was done at 55 and 56 dpi respectively. Salmon that hosted the previous generation were re-used for reinfection with the next generation, but hosted only the same experimental strain.
# (§3) Each strain, including both types of hybrids obtained in example 1 were quantified in their tolerance of deltamethrin at sampling points 1 and 2 representing the F1 and F2 generations for the hybrids (Fig. 1 and 2). Bioassays were performed according to standard guidelines (SEARCH Consortium, 2006, Sea lice resistance to chemotherapeutants: A handbook in resistance management. 2 ed.), with minor modifications. Only adult male lice were used for the bioassay, which after sampling (at 55 or 56 dpi) had been incubated overnight in running seawater (ca. 10 °C). The 30 min exposure to the prepared deltamethrin concentration was also carried out at ca. 10 °C, and higher concentrations than those described in the given protocol were included (Table S3). After exposure to deltamethrin, the lice were kept in running seawater (24 h at ca. 10 °C) until evaluation of the bioassays. […] EC50 values were calculated using probit analysis (PoloPlus 2.0; LeOra Software, CA, USA). Table 3a. Deltamethrin bioassays performed on sampling set 1
# [2] = tested on: LsHybridV (LsVikna as its maternal strain); assay: Deltamethrin bioassay on adult male sea lice, hybrid strain with resistant maternal strain
# Experimental: as §1, §2, §3
# [3] = tested on: LsGulen (pyrethroid sensitive strain)
# Excerpt: (§4) In order to investigate the inheritance and mechanism of pyrethroid resistance in L. salmonis, two strains (sensitive and resistant) and their reciprocal hybrids were used for a two-generation breeding experiment complimented with bioassays to measure tolerance (Fig. 2). The pyrethroid sensitive strain (hereon also referred to as LsGulen) was collected in June 2006 from newly slaughtered rainbow trout from Gulen in western Norway. The pyrethroid resistant strain (hereon also referred to as LsVikna) was collected in February 2009 from a salmon farm in Vikna, North Trøndelag, Norway. The resistant strain was collected on the basis of suspected reduced sensitivity to pyrethroids due to the fact that there had been reported a treatment failure on the farm from which it was collected. This was subsequently confirmed in bioassays with LsGulen as sensitive control.
# as §3, with “Deltamethrin bioassays performed on sampling set 1” left out
# [4] = tested on: LsVikna (pyrethroid resistant strain); assay: Deltamethrin bioassay on adult male sea lice, pyrethroid resistant strain
# Excerpt: as §4
# as §3, with “Deltamethrin bioassays performed on sampling set 1” left out
structure (smiles),measurement,setting,value
"CC1(C)[C@H](C(=O)O[C@H](C#N)c2cccc(Oc3ccccc3)c2)[C@@H]1C=C(Br)Br [Deltamethrin, deltamethrin]",mortality,"[1]; above 1 ppb, maternal hybrid strain of the sensitive strain",100%
same,% Inactive,"[1]; sampling set 1, F1, fish tank 01, dose 0.1 ppb",0%
same,% Inactive,"[1]; sampling set 1, F1, fish tank 01, dose 0.3 ppb",21%
same,% Inactive,"[1]; sampling set 1, F1, fish tank 01, dose 1 ppb",100%
same,% Inactive,"[1]; sampling set 1, F1, fish tank 01, dose 3 ppb",100%
same,% Inactive,"[1]; sampling set 1, F1, fish tank 01, dose 6 ppb",100%
same,% Inactive,"[1]; sampling set 1, F1, fish tank 01, dose 12 ppb",100%
same,% Inactive,"[1]; sampling set 1, F1, fish tank 07, dose 0.1 ppb",18%
same,% Inactive,"[1]; sampling set 1, F1, fish tank 07, dose 0.3 ppb",32%
same,% Inactive,"[1]; sampling set 1, F1, fish tank 07, dose 1 ppb",100%
same,% Inactive,"[1]; sampling set 1, F1, fish tank 07, dose 3 ppb",100%
same,% Inactive,"[1]; sampling set 1, F1, fish tank 07, dose 6 ppb",100%
same,% Inactive,"[1]; sampling set 1, F1, fish tank 07, dose 12 ppb",100%
same,% Inactive,"[1]; sampling set 2, F2, fish tank 07, dose 0.1 ppb",0%
same,% Inactive,"[1]; sampling set 2, F2, fish tank 07, dose 0.3 ppb",50%
same,% Inactive,"[1]; sampling set 2, F2, fish tank 07, dose 0.5 ppb",85%
same,% Inactive,"[1]; sampling set 2, F2, fish tank 07, dose 1 ppb",90%
same,% Inactive,"[1]; sampling set 2, F2, fish tank 07, dose 3 ppb",100%
same,% Inactive,"[1]; sampling set 2, F2, fish tank 07, dose 6 ppb",100%
same,% Inactive,"[1]; sampling set 2, F2, fish tank 07, dose 12 ppb",100%
same,% Inactive,"[1]; sampling set 2, F2, fish tank 07, dose 20 ppb",100%
same,% Inactive,"[1]; sampling set 2, F2, fish tank 10, dose 0.1 ppb",5%
same,% Inactive,"[1]; sampling set 2, F2, fish tank 10, dose 0.3 ppb",43%
same,% Inactive,"[1]; sampling set 2, F2, fish tank 10, dose 0.5 ppb",72%
same,% Inactive,"[1]; sampling set 2, F2, fish tank 10, dose 1 ppb",100%
same,% Inactive,"[1]; sampling set 2, F2, fish tank 10, dose 3 ppb",100%
same,% Inactive,"[1]; sampling set 2, F2, fish tank 10, dose 6 ppb",100%
same,% Inactive,"[1]; sampling set 2, F2, fish tank 10, dose 12 ppb",100%
same,% Inactive,"[1]; sampling set 2, F2, fish tank 10, dose 20 ppb",100%
same,survival of the bioassay,"[2]; above 1 ppb, maternal hybrid strain of the resistant strain",survived the bioassay
same,% Inactive,"[2]; sampling set 1, F1, fish tank 02, dose 0.1 ppb",0%
same,% Inactive,"[2]; sampling set 1, F1, fish tank 02, dose 0.3 ppb",0%
same,% Inactive,"[2]; sampling set 1, F1, fish tank 02, dose 1 ppb",5%
same,% Inactive,"[2]; sampling set 1, F1, fish tank 02, dose 3 ppb",13%
same,% Inactive,"[2]; sampling set 1, F1, fish tank 02, dose 6 ppb",5%
same,% Inactive,"[2]; sampling set 1, F1, fish tank 02, dose 12 ppb",31%
same,% Inactive,"[2]; sampling set 1, F1, fish tank 06, dose 0.1 ppb",0%
same,% Inactive,"[2]; sampling set 1, F1, fish tank 06, dose 0.3 ppb",0%
same,% Inactive,"[2]; sampling set 1, F1, fish tank 06, dose 1 ppb",7%
same,% Inactive,"[2]; sampling set 1, F1, fish tank 06, dose 3 ppb",2%
same,% Inactive,"[2]; sampling set 1, F1, fish tank 06, dose 6 ppb",9%
same,% Inactive,"[2]; sampling set 1, F1, fish tank 06, dose 12 ppb",32%
same,% Inactive,"[2]; sampling set 2, F2, fish tank 06, dose 0.1 ppb",0%
same,% Inactive,"[2]; sampling set 2, F2, fish tank 06, dose 0.3 ppb",0%
same,% Inactive,"[2]; sampling set 2, F2, fish tank 06, dose 0.5 ppb",0%
same,% Inactive,"[2]; sampling set 2, F2, fish tank 06, dose 1 ppb",0%
same,% Inactive,"[2]; sampling set 2, F2, fish tank 06, dose 3 ppb",16%
same,% Inactive,"[2]; sampling set 2, F2, fish tank 06, dose 6 ppb",14%
same,% Inactive,"[2]; sampling set 2, F2, fish tank 06, dose 12 ppb",21%
same,% Inactive,"[2]; sampling set 2, F2, fish tank 06, dose 20 ppb",40%
same,% Inactive,"[2]; sampling set 2, F2, fish tank 09, dose 0.1 ppb",14%
same,% Inactive,"[2]; sampling set 2, F2, fish tank 09, dose 0.3 ppb",0%
same,% Inactive,"[2]; sampling set 2, F2, fish tank 09, dose 0.5 ppb",3%
same,% Inactive,"[2]; sampling set 2, F2, fish tank 09, dose 1 ppb",5%
same,% Inactive,"[2]; sampling set 2, F2, fish tank 09, dose 3 ppb",0%
same,% Inactive,"[2]; sampling set 2, F2, fish tank 09, dose 6 ppb",19%
same,% Inactive,"[2]; sampling set 2, F2, fish tank 09, dose 12 ppb",8%
same,% Inactive,"[2]; sampling set 2, F2, fish tank 09, dose 20 ppb",54%
same,mortality,"[3]; above 1 ppb, sensitive strain",100%
same,% Inactive,"[3]; sampling set 1, F15, fish tank 04, dose 0.1 ppb",0%
same,% Inactive,"[3]; sampling set 1, F15, fish tank 04, dose 0.3 ppb",48%
same,% Inactive,"[3]; sampling set 1, F15, fish tank 04, dose 1 ppb",100%
same,% Inactive,"[3]; sampling set 1, F15, fish tank 04, dose 3 ppb",100%
same,% Inactive,"[3]; sampling set 1, F15, fish tank 04, dose 6 ppb",100%
same,% Inactive,"[3]; sampling set 1, F15, fish tank 04, dose 12 ppb",100%
same,% Inactive,"[3]; sampling set 1, F15, fish tank 10, dose 0.1 ppb",0%
same,% Inactive,"[3]; sampling set 1, F15, fish tank 10, dose 0.3 ppb",50%
same,% Inactive,"[3]; sampling set 1, F15, fish tank 10, dose 1 ppb",100%
same,% Inactive,"[3]; sampling set 1, F15, fish tank 10, dose 3 ppb",100%
same,% Inactive,"[3]; sampling set 1, F15, fish tank 10, dose 6 ppb",100%
same,% Inactive,"[3]; sampling set 1, F15, fish tank 10, dose 12 ppb",100%
same,% Inactive,"[3]; sampling set 2, F16, fish tank 03, dose 0.1 ppb",5%
same,% Inactive,"[3]; sampling set 2, F16, fish tank 03, dose 0.3 ppb",48%
same,% Inactive,"[3]; sampling set 2, F16, fish tank 03, dose 0.5 ppb",86%
same,% Inactive,"[3]; sampling set 2, F16, fish tank 03, dose 1 ppb",100%
same,% Inactive,"[3]; sampling set 2, F16, fish tank 03, dose 3 ppb",100%
same,% Inactive,"[3]; sampling set 2, F16, fish tank 03, dose 6 ppb",100%
same,% Inactive,"[3]; sampling set 2, F16, fish tank 04, dose 0.1 ppb",8%
same,% Inactive,"[3]; sampling set 2, F16, fish tank 04, dose 0.3 ppb",55%
same,% Inactive,"[3]; sampling set 2, F16, fish tank 04, dose 0.5 ppb",95%
same,% Inactive,"[3]; sampling set 2, F16, fish tank 04, dose 1 ppb",100%
same,% Inactive,"[3]; sampling set 2, F16, fish tank 04, dose 3 ppb",100%
same,% Inactive,"[3]; sampling set 2, F16, fish tank 04, dose 6 ppb",100%
same,% Inactive,"[3]; sampling set 2, F16, fish tank 04, dose 12 ppb",100%
same,survival of the bioassay,"[4]; above 1 ppb, resistant strain",survived the bioassay
same,% Inactive,"[4]; sampling set 1, F6, fish tank 05, dose 0.1 ppb",0%
same,% Inactive,"[4]; sampling set 1, F6, fish tank 05, dose 0.3 ppb",0%
same,% Inactive,"[4]; sampling set 1, F6, fish tank 05, dose 1 ppb",12%
same,% Inactive,"[4]; sampling set 1, F6, fish tank 05, dose 3 ppb",27%
same,% Inactive,"[4]; sampling set 1, F6, fish tank 05, dose 6 ppb",35%
same,% Inactive,"[4]; sampling set 1, F6, fish tank 05, dose 12 ppb",41%
same,% Inactive,"[4]; sampling set 1, F6, fish tank 09, dose 0.1 ppb",4%
same,% Inactive,"[4]; sampling set 1, F6, fish tank 09, dose 0.3 ppb",0%
same,% Inactive,"[4]; sampling set 1, F6, fish tank 09, dose 1 ppb",10%
same,% Inactive,"[4]; sampling set 1, F6, fish tank 09, dose 3 ppb",19%
same,% Inactive,"[4]; sampling set 1, F6, fish tank 09, dose 6 ppb",23%
same,% Inactive,"[4]; sampling set 1, F6, fish tank 09, dose 12 ppb",28%
same,% Inactive,"[4]; sampling set 2, F7, fish tank 08, dose 0.1 ppb",0%
same,% Inactive,"[4]; sampling set 2, F7, fish tank 08, dose 0.3 ppb",0%
same,% Inactive,"[4]; sampling set 2, F7, fish tank 08, dose 0.5 ppb",0%
same,% Inactive,"[4]; sampling set 2, F7, fish tank 08, dose 1 ppb",0%
same,% Inactive,"[4]; sampling set 2, F7, fish tank 08, dose 3 ppb",6%
same,% Inactive,"[4]; sampling set 2, F7, fish tank 08, dose 6 ppb",18%
same,% Inactive,"[4]; sampling set 2, F7, fish tank 08, dose 12 ppb",0%
same,% Inactive,"[4]; sampling set 2, F7, fish tank 08, dose 20 ppb",39%
